Reference: patent US20090281156A1, “ENHANCING PHOTOSTABILIZATION OF OXYMETAZOLINE” (Schering-Plough Healthcare Products, Inc,, priority 2007, published 2009)
Structures can show the parent of a compound that is named as a salt. Blank lines part the entries; values can stand above or below the compound they belong to.

What was measured:
[1] = in vivo; cited from earlier work
[2] = exemplary conventional formulation; cited from earlier work
[3] = ICH photostability testing of oxymetazoline HCl solutions (quartz container, twice ICH exposure); format: physicochemical; conditions: for drug degraded after UV light exposure: McIlvaine buffer pH=6
Experimental: 0.05% (w/v) oxymetazoline HCl solutions with pH ranging from 4 to 6 were prepared using McIlvaine buffer systems (Solutions I-III). At each pH level, 0.05% oxymetazoline HCl solutions containing either Povidone 29-32 (approximately 3% w/v) or PEG 1450 (approximately 5% w/v) were also made ([…]).
Example embodiments were tested for photostability according to methods described in ICH Harmonized Tripartite Guidelines Stability Testing: Photostability Testing of New Drug Substances and Products. Each sample for photostability studies was placed in an enclosed quartz container and exposed to twice the exposure required by ICH photostability guideline (total exposure of 2.4 million lux hours and an integrated near UV energy of 400 watt hours/square meter).
All of the observed oxymetazoline HCl degradation peaks were calculated and presented in percentage.

SMILES: CN1CCC(=C2c3ccccc3CCc3cccnc32)CC1 [Azatadine]
- elimination half-life [1]: 9 to 12 h

SMILES: CCOC(=O)N1CCC(=C2c3ccc(Cl)cc3CCc3cccnc32)CC1 [loratadine]
- antihistaminic effect lasts [2]: > 24 h

- drug degraded after UV light exposure ([3]; 24 hours of UV light exposure): roughly 9%
- drug degraded after UV light exposure ([3]; 40 hours of UV light exposure): ~72%
- light sensitivity ([3]; aqueous solution): light sensitive
- increase in the total degradation on incorporating PEG 1450 ([3]; pH 5, T=40 hours, PEG 1450 approximately 5% w/v): roughly 4 fold
- increase in the total photodegradation in presence of Povidone K29-32 ([3]; pH=6, T=40 hours, Povidone K29-32 approximately 3% w/v): about 21%
SMILES: Cc1cc(C(C)(C)C)c(O)c(C)c1CC1=NCCN1 [oxymetazoline HCl, 6-tert-butyl-3-(2-imidazolin-2-ylmethyl)-2,4-dimentylphenol hydrochloride]
